Measured values published in ChEMBL document CHEMBL4359925, “Rational discovery of a highly novel and selective mTOR inhibitor” (Bioorg Med Chem Lett, 2019).

What was measured:
[1] = biological target: Phosphatidylinositol 4,5-bisphosphate 3-kinase catalytic subunit alpha isoform (Homo sapiens, UniProt P42336); test: Inhibition of PI3K alpha (unknown origin)
[2] = biological target: Serine/threonine-protein kinase mTOR (Homo sapiens, UniProt P42345); test: Inhibition of human mTOR measured after 30 mins in presence of ATP by Lanthascreen TR-FRET assay

Chain of Phosphatidylinositol 4,5-bisphosphate 3-kinase catalytic subunit alpha isoform (P42336 whole entry, canonical isoform): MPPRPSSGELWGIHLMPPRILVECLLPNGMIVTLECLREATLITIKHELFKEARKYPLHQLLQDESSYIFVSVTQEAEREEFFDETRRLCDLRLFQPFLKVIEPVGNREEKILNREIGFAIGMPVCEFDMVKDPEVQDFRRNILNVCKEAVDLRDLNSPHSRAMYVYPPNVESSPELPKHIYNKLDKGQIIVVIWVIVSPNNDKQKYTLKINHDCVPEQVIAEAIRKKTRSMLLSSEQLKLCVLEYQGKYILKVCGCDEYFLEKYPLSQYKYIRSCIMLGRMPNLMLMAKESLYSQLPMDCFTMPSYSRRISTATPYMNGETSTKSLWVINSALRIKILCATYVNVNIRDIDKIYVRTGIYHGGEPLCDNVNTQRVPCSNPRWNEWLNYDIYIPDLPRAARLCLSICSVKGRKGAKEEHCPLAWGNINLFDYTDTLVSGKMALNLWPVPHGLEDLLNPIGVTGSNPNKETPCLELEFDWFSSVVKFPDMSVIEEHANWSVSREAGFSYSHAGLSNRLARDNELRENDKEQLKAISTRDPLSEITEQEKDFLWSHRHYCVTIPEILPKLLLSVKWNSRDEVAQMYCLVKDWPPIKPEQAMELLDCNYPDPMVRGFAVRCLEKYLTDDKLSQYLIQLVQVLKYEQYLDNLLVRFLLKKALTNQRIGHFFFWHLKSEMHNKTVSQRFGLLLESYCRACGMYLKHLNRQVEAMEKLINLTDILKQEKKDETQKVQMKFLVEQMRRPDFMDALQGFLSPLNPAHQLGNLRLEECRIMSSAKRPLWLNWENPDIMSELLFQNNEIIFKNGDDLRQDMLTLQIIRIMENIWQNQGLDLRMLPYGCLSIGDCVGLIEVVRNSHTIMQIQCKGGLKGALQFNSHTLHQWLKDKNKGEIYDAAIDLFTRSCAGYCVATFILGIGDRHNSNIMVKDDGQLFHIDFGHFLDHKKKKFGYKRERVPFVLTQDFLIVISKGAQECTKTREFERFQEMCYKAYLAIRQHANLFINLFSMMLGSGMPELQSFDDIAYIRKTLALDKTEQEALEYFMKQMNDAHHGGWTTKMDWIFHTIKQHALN

| SMILES | IC50 [1] [µM] | IC50 [2] [µM] |
| --- | --- | --- |
| CNC(=O)Nc1ccc(-c2ncc3c(n2)N2CCOCC2C(=O)N3)cc1 (centres undefined) | 0.0316 | 0.316 |
| CNC(=O)Nc1ccc(-c2ncc3c(n2)N2CCOCC2C(=O)N3CC2CC2)cc1 (centres undefined) | 0.02 | 0.0316 |
